5 compounds from ChEMBL document CHEMBL1153350, “Synthesis of actin-depolymerizing compounds” (Bioorg Med Chem Lett, 2009) can be followed below.

SMILES strings stand for the structures. Where only a bound is given, the exact number is not on record here.

Assay [1] can be described thus: Cytotoxicity against human HeLaS3 cells. It is filed as functional, cell-based. The note with it: HeLa S3.
The nature of assay [2]: Inhibition of F-actin depolymerization.

As usually defined, the IC50 is the point on the concentration scale where inhibition reaches its midpoint. The low end stands for higher potency, the high end for lower potency. `CC(=O)O[C@@H]([C@@H](C)[C@@H](/C=C/CCCCc1ccccc1)OC(=O)[C@H](C)N(C)C)[C@H](C)/C=C/N(C)C=O`: the figures for the IC50 in assay [1] and in assay [2] were > 10 µg/mL and 21 µM, respectively.
Take `CC(=O)O[C@@H]([C@@H](C)[C@@H](/C=C/c1ccccc1)OC(=O)[C@H](C)N(C)C)[C@H](C)/C=C/N(C)C=O`: the figures for the IC50 in assay [1] and in assay [2] were > 10 µg/mL and 85 µM, respectively.
In the same order, the values of `CC(=O)O[C@@H]([C@@H](C)[C@@H](CC[C@H](C)[C@H](O)[C@H](C)[C@@H](O)CCO)OC(=O)[C@H](C)N(C)C)[C@H](C)/C=C/N(C)C=O` are > 10 µg/mL and 7.9 µM.
On the same counts, the results for `C/C=C/[C@@H](OC(=O)[C@H](C)N(C)C)[C@H](C)[C@H](OC(C)=O)[C@H](C)/C=C/N(C)C=O` are > 10 µg/mL and 210 µM.
In the same order, the values of `CC(=O)O[C@@H]([C@@H](C)[C@@H](/C=C/CCc1ccccc1)OC(=O)[C@H](C)N(C)C)[C@H](C)/C=C/N(C)C=O` are > 10 µg/mL and 47 µM.
